Experimental data reported in patent US20230248776A1, “OSTEOBLASTS DIFFERENTIATED FROM MESENCHYMAL STEM CELLS AND COMPOSITION FOR TREATING BONE DISEASE COMPRISING SAME” (CEFO Co., Ltd., priority 2020, published 2023).

Test system: umbilical cord-derived mesenchymal stem cells
Assay: surfactant cytotoxicity and cell growth, CCK-8 in transwell
Format: cell-based
Description: The toxicity of poloxamer (poloxamer 407, p407), sodium methyl cocoyl taurate (DIAPON K-SF), polyoxyethylene sorbitan monolaurate (Tween 20) or methylprednisolone, which are known as representative biocompatible surfactants, was confirmed.
Specifically, in the upper chamber in a transwell including a three-dimensional porous membrane, the surfactant p407, DIAPON K-SF or Tween 20 was respectively treated at 0, 0.5 1, 5 or 15% (v/v) and coated for 2 hours in the same manner as in [Example 2], and then, the umbilical cord-derived mesenchymal stem cells obtained in [Example 1] were seeded at 20,000 cells/cm^2. The cell growth medium was placed in the lower chamber and cultured for 3 days. On days 1, 2 and 3, the CCK-8 (Cat. CK04, DOJINDO) solution was added, and after 3 hours of reaction in a 37° C. CO2 incubator, absorbance was measured at 450 nm to analyze cytotoxicity (FIG. 4) and the degree of cell growth (FIG. 5).
Further, in a transwell including a three-dimensional porous membrane, the surfactant p407, methylprednisolone or Tween 20 was treated at a concentration of 4 mM in the upper chamber, and after coating for 2 hours in the same manner as in [Example 2], the umbilical cord-derived mesenchymal stem cells obtained in [Example 1] were seeded at 20,000 cell/cm^2. The cell growth medium was placed in the lower chamber and cultured for 3 days. On days 1, 2 and 3, the CCK-8 solution was added, and after 3 hours of reaction in a 37° C. CO2 incubator, absorbance was measured at 450 nm to analyze cytotoxicity (FIG. 6) and the degree of cell growth (FIG. 7).

Molecule	cell proliferation, CCK-8 day 1 to day 3 (surfactant 4 mM coating (FIG. 7))	cytotoxicity, CCK-8 day 1 (surfactant 4 mM coating, day 1 (FIG. 6))	cell proliferation, CCK-8 day 1 to day 3 (surfactant 0, 0.5, 1, 5 or 15% (v/v) coating (FIG. 5))	cytotoxicity, CCK-8 day 1 (surfactant 0, 0.5, 1, 5 or 15% (v/v) coating, day 1 (FIG. 4))
C[C@H]1C[C@@H]2[C@H]([C@@H](O)C[C@@]3(C)[C@H]2CC[C@]3(O)C(=O)CO)[C@@]2(C)C=CC(=O)C=C12 [methylprednisolone]	cells did not proliferate	toxic to cells	–	–
sodium methyl cocoyl taurate [DIAPON K-SF]	–	–	cells did not proliferate	toxic to cells
